Assay results taken from patent US9725442B2, “Heterocyclic derivative having PGD2 receptor antagonist activity” (Shionogi & Co., Ltd., priority 2011, dated 2017).
Like-named read-outs stand apart in the source and are kept apart here.

Legend:
CRTH2 = CRTH2 (Homo sapiens (Human), UniProt Q9Y5Y4); experiment: CRTH2 receptor binding inhibitory activity ([3H]-PGD2 displacement, membranes of CRTH2-expressing K562 cell); conditions: [3H]-PGD2 displacement, membrane of CRTH2-expressing K562 cell, read-out: Ki
Sequence of CRTH2 (Q9Y5Y4 whole entry): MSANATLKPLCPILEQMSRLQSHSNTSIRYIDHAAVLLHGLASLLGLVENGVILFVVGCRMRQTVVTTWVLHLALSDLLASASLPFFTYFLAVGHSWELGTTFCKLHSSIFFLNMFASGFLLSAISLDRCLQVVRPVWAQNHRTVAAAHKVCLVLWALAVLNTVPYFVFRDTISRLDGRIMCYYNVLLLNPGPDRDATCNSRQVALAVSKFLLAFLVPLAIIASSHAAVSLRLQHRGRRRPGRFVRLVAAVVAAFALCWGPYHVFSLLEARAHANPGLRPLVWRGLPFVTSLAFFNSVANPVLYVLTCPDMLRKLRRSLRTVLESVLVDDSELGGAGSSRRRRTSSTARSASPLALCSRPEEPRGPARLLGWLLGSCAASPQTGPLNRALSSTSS
Protocol: Cell membrane was prepared from CRTH2-expressing K562 cell. The cell membrane (20 μg/well) was mixed with reaction buffer (50 mM Tris/HCl, pH 7.4, 10 mM MgCl2). Then, [^3H]-PGD2 was added to the mixture and incubated for 60 min at room temperature. […] Then, the mixture was filtrated with glass paper immediately. The filter paper was washed several times and radio activity on the filter was measured. Specific binding was defined as difference between total and non-specific binding (radio activity with 10 μM PGD2). Ki values for each compound were calculated from displacement curve.

Human DP1 receptor = Human DP1 receptor (Homo sapiens (Human), UniProt Q13258); experiment: Human DP1 inhibitory activity in DP1-expressing cell (PGD2-induced cAMP); assay type: cell-based; conditions: category of cAMP IC50, human DP1 receptor expressing Jurkut cell
Sequence of Human DP1 receptor (Q13258 whole entry): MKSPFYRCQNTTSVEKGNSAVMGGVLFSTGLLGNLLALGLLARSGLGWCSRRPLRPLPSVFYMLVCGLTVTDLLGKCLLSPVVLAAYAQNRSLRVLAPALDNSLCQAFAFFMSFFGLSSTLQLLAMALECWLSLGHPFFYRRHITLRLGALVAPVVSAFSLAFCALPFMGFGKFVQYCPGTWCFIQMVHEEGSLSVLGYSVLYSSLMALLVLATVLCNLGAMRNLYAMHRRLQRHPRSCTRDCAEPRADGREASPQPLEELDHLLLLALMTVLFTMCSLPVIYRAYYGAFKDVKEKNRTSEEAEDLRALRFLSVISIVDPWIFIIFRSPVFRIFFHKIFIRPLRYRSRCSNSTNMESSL
Protocol: Compounds were categorized as AA (cAMP is less than 100 nM) and A (cAMP is more than 100 nM and less than 5000 nM) as shown in Table 99 and 100.

[1] = CRTH2 receptor binding, categorized AAAA/AAA

Row | SMILES | Ki (CRTH2; [1]) [nM] | IC50 (Human DP1 receptor) [nM] | Ki (CRTH2) [nM]
1 | CC(C)Oc1ccc(S(=O)(=O)N2C[C@@H](CCO)[C@@H](n3nc(CC(=O)O)c4ccc(F)cc43)C2)cc1 [Compound I-40] | < 100 | 100 to 5000 | –
2 | CC(C)Oc1ccc(S(=O)(=O)N2C[C@@H](C3CC3)[C@@H](n3nc(CC(=O)O)c4ccc(F)cc43)C2)cc1 [Compound I-41] | < 100 | 100 to 5000 | –
3 | CC(C)Oc1ccc(S(=O)(=O)N2C[C@@H](CF)[C@@H](n3nc(CC(=O)O)c4ccc(F)cc43)C2)cc1 [Compound I-42] | < 100 | 100 to 5000 | –
4 | C=C1CN(S(=O)(=O)c2ccc(OC(C)C)cc2)CC1n1nc(CC(=O)O)c2ccc(F)cc21 (stereo not drawn) [Compound I-43] | < 100 | 100 to 5000 | –
5 | CC(C)Oc1ccc(S(=O)(=O)N2C[C@@H](CC(F)F)[C@@H](n3nc(CC(=O)O)c4ccc(F)cc43)C2)cc1 [Compound I-44] | < 100 | 100 to 5000 | –
6 | CC(C)Oc1ccc(S(=O)(=O)N2C[C@@H](CCF)[C@@H](n3nc(CC(=O)O)c4ccc(F)cc43)C2)cc1 [Compound I-45] | < 100 | 100 to 5000 | –
7 | CC(C)Oc1ccc(S(=O)(=O)N2C[C@H](n3nc(CC(=O)O)c4ccc(F)cc43)C[C@@H]2C)cc1 [Compound I-46] | < 100 | < 100 | –
8 | C[C@@H]1CN(S(=O)(=O)c2ccc(F)cc2)C[C@@H]1n1nc(CC(=O)O)c2ccc(F)cc21 [Compound I-48] | < 100 | 100 to 5000 | –
9 | C[C@@H]1CN(S(=O)(=O)c2ccc(C3CC3)cc2Cl)C[C@@H]1n1nc(CC(=O)O)c2ccc(F)cc21 [Compound I-53] | < 100 | < 100 | –
10 | CC(C)Oc1ccc(S(=O)(=O)N2C[C@H](n3nc(CC(=O)O)c4ccc(F)cc43)CC23CC3)cc1 [Compound I-54] | < 100 | 100 to 5000 | –
11 | CC(C)Oc1ccc(S(=O)(=O)N2C[C@H](n3nc(CC(=O)O)c4ccc(F)cc43)C[C@@H]2c2nc[nH]n2)cc1 [Compound I-55] | 100 to 5000 | 100 to 5000 | –
12 | CC(C)Oc1ccc(S(=O)(=O)N2C[C@@H](C)[C@@H](n3nc(CC(=O)O)c4ccc(F)cc43)C2)c(C#N)c1 [Compound I-58] | < 100 | < 100 | –

The next lines start with the values.

Row | Ki (CRTH2; [1]) [nM] | IC50 (Human DP1 receptor) [nM] | Ki (CRTH2) [nM] | SMILES
13 | < 100 | 100 to 5000 | 23 | CC(C)Oc1ccc(S(=O)(=O)N2C[C@@H](C)[C@@H](n3nc(CC(=O)O)c4cccc(F)c43)C2)cc1 [Compound I-59]
14 | 100 to 5000 | < 100 | – | CC(C)Oc1ccc(S(=O)(=O)N2C[C@H](n3nc(CC(=O)O)c4cccc(F)c43)C[C@@H]2C)cc1 [Compound I-60]
15 | < 100 | 100 to 5000 | – | CC(C)Oc1ccc(S(=O)(=O)N2C[C@@H](C)[C@@H](n3nc(CC(=O)O)c4cccc(Cl)c43)C2)cc1 [Compound I-61]
16 | < 100 | < 100 | – | Cc1ccc2c(CC(=O)O)nn([C@H]3CN(S(=O)(=O)c4ccc(OC(C)C)cc4)C[C@H]3C)c2c1 [Compound I-62]
17 | – | < 100 | 3.1 | Cc1ccc2c(CC(=O)O)nn([C@H]3CN(S(=O)(=O)c4ccc(OC(C)C)cc4)C[C@H]3C)c2c1 [Compound I-63]
18 | < 100 | 100 to 5000 | – | CC(C)Oc1ccc(S(=O)(=O)N2C[C@@H](CO)[C@@H](n3nc(CC(=O)O)c4ccc(F)cc43)C2)cc1 [Compound I-64]
19 | < 100 | 100 to 5000 | – | CON=C[C@@H]1CN(S(=O)(=O)c2ccc(OC(C)C)cc2)C[C@@H]1n1nc(CC(=O)O)c2ccc(F)cc21 [Compound I-65]
20 | < 100 | < 100 | – | CC(C)Oc1ccc(S(=O)(=O)N2C[C@@H](C)[C@@H](n3nc(CC(=O)O)c4cc(F)c(F)cc43)C2)cc1 [Compound I-68]
21 | 100 to 5000 | < 100 | – | CC(C)Oc1ccc(S(=O)(=O)N2C[C@@H](C)[C@@H](n3nc(CC(=O)O)c4cc(F)ccc43)C2)cc1 [Compound I-69]
22 | 100 to 5000 | 100 to 5000 | – | CC(C)Oc1ccc(S(=O)(=O)N2CC[C@H](n3nc(CC(=O)O)c4ccc(F)cc43)C[C@H]2CO)cc1 [Compound I-72]
